The results in this text go back to patent US20110318768A1, “METHOD FOR DETERMINING SENSITIVITY OF TUMOR CELLS TO TYROSINE KINASE INHIBITOR AND COMPUTER PROGRAM PRODUCT” (SYSMEX CORPORATION, priority 2010, published 2011).

Experiment in all cases: Tyrosine kinase activity inhibition rate in cell membrane fraction (Poly-Glu4-Tyr substrate)
What all share (type): biochemical

The subject of assay [1] is tyrosine kinase in cell membrane fraction of AU565. The following applies: 25 μM kinase inhibitor, 25 μM ATP. The protocol:
(§1) Breast cancer cell lines shown in Table 3 were cultured in a 150 mm dish so as to be about 80% confluent, the cells were recovered using PBS and a scraper, and a cell pellet was obtained by centrifugal operation (900×g, for 5 minutes, at 4° C.). The pellet was frozen with liquid nitrogen and stored at −80° C. until preparation of the measurement sample.
(§2) 500 μl of NP40 (−) solubilized buffer (20 mM HEPES (pH 7.4)), (w/v) % glycerol, 0.2% protease inhibitor cocktail (#P8340: Sigma-Aldrich (product composition: 104 mM AEBSF, 80 μM aprotinin, 4 mM bestatin, 1.4 mM E-64, 2 mM leupeptin, 1.5 mM Pepstatin A), 50 mM NaF and 200 μM Na3VO4) was added to the cell pellet, followed by stirring for 2 seconds three times using a vortex mixer. After being allowed to stand for 10 minutes, the soluble fraction was removed by centrifugal operation (at 20000×g, for 30 minutes, at 4° C.). The obtained pellet was resuspended in 500 μl of NP40 (−) solubilized buffer, the soluble fraction was again removed by centrifugal operation (at 20000×g, for 20 minutes, at 4° C.), and the pellet was washed. The pellet was resuspended by adding 500 μl of NP40 (+) solubilized buffer (a buffer prepared by adding NP-40 to the NP40 (−) solubilized buffer at a final concentration of 1%) to the pellet, pipetting fifty times, and vortexing for 2 seconds three times. After being allowed to stand for 10 minutes, a cell membrane fraction containing a membrane protein was obtained by centrifugal operation (at 20000×g, for 40 minutes, at 4° C.). The protein concentration of the fraction was measured by DC protein assay (#500-0116 JA: Bio-Rad) and the fraction was used as a sample for kinase activity measurement. The sample was frozen with liquid nitrogen and stored at −80° C. until used for the following kinase activity measurement.
(§3) NeutrAvidin Coated Plates (HBC) (96 white plate; #15509: Pierce) were washed three times with 300 μl of TBS-T (20 mM Tris-HCl (pH 7.4)), 150 mM NaCl, 0.1% Tween), and then 100 μl of Poly-Glu4-Tyr biotin conjugate (#12440: Upstate) which had been diluted to 1 μg/ml with TBS (20 mM Tris-HCl (pH 7.4), 150 mM NaCl) was added to the wells. After shaking at 37° C. and 400 rpm for 90 minutes, the wells were washed with 300 μl of TBS-T three times and a measuring plate was obtained.
(§4) The measurement sample was diluted with a kinase buffer (20 mM HEPES (pH 7.4), 25 mM MgCl2, 1.25 mM MnCl2, 250 μM Na3VO4, 12.5 (w/v) % glycerol) so as to adjust the protein concentration to 6.25 μg/ml. The diluted measurement sample was transferred to wells of a 96 well V bottom plate. A DMSO solution (inhibitor concentration: 5 mM) containing one type of tyrosine kinase inhibitors (Inhibitors 1 to 10 shown in Table 6) was added to the wells at a ratio of 1:160 based on the diluted measurement sample solution, followed by mixing thereof. As the control, DMSO was added to the diluted measurement sample at the same ratio as the solution of the inhibitor. The used tyrosine kinase inhibitors are represented as Inhibitors 1 to 10 in Table 6.
(§5) After addition of the inhibitors, a mixed solution of the measurement sample and the inhibitor was allowed to stand at room temperature for 10 minutes. 40 μl of the mixed solution was transferred to wells of the measuring plate and 10 μl of an ATP solution (20 mM HEPES (pH 7.4), […]) as the phosphate group donor was added to the wells.
(§6) The composition of the solution in the wells is as follows: protein concentration: 5 μg/ml, 20 mM HEPES (pH 7.4), 20 mM MgCl2, 1 mM MnCl2, 200 μM Na3VO4, 10 (w/v) % glycerol, 25 μM ATP, 25 μM kinase inhibitor.
(§7) After shaking the measuring plate at 37° C. and 400 rpm for 60 minutes, the solution was removed from the measuring plate, and the wells were washed with 300 μl of TBS-T three times. 100 μl of Starting Block T20 (TBS) (#37543: Pierce) as a blocking solution was added to the wells, followed by blocking at 37° C. and 400 rpm for 10 minutes. The blocking solution was removed from the measuring plate. […]

In assay [2] the test system is tyrosine kinase in cell membrane fraction of HCC1937. The following applies: 25 μM kinase inhibitor, 25 μM ATP. How it is done: as §1, §2, §3, §4, §5, §6, §7
The subject of assay [3] is tyrosine kinase in cell membrane fraction of HCC1569. The following applies: 25 μM kinase inhibitor, 25 μM ATP. The protocol:
as §1, §2, §3, §4, §5, §6, §7

Assay [4] concerns tyrosine kinase in cell membrane fraction of HS578T. The following applies: 25 μM kinase inhibitor, 25 μM ATP. How it is done: as §1, §2, §3, §4, §5, §6, §7
Assay [5] relates to tyrosine kinase in cell membrane fraction of MCF7. The following applies: 25 μM kinase inhibitor, 25 μM ATP. How it is done: as §1, §2, §3, §4, §5, §6, §7
The subject of assay [6] is tyrosine kinase in cell membrane fraction of MDA-MB-415. The note with it: 25 μM kinase inhibitor, 25 μM ATP. How it is done: as §1, §2, §3, §4, §5, §6, §7
For assay [7], the system named is tyrosine kinase in cell membrane fraction of HCC202. The note with it: 25 μM kinase inhibitor, 25 μM ATP. How it is done: as §1, §2, §3, §4, §5, §6, §7
Assay [8] relates to tyrosine kinase in cell membrane fraction of HCC1428. The following applies: 25 μM kinase inhibitor, 25 μM ATP. The protocol:
as §1, §2, §3, §4, §5, §6, §7

The test system of assay [9] is tyrosine kinase in cell membrane fraction of MDA-MB-468. The note with it: 25 μM kinase inhibitor, 25 μM ATP. The protocol: as §1, §2, §3, §4, §5, §6, §7
The test system of assay [10] is tyrosine kinase in cell membrane fraction of HCC1806. The following applies: 25 μM kinase inhibitor, 25 μM ATP. How it is done:
as §1, §2, §3, §4, §5, §6, §7

Assay [11] has as its system tyrosine kinase in cell membrane fraction of HCC1419. The following applies: 25 μM kinase inhibitor, 25 μM ATP. How it is done:
as §1, §2, §3, §4, §5, §6, §7

For assay [12], the system named is tyrosine kinase in cell membrane fraction of MDA-MB-453. The following applies: 25 μM kinase inhibitor, 25 μM ATP. How it is done:
as §1, §2, §3, §4, §5, §6, §7

Assay [13] has as its system tyrosine kinase in cell membrane fraction of MDA-MB-435S. The following applies: 25 μM kinase inhibitor, 25 μM ATP. How it is done:
as §1, §2, §3, §4, §5, §6, §7

Assay [14] relates to tyrosine kinase in cell membrane fraction of CAMA-1. The following applies: 25 μM kinase inhibitor, 25 μM ATP. The protocol:
as §1, §2, §3, §4, §5, §6, §7

The subject of assay [15] is tyrosine kinase in cell membrane fraction of UACC812. The following applies: UACC812; 25 μM kinase inhibitor, 25 μM ATP. The protocol: as §1, §2, §3, §4, §5, §6, §7
Assay [16] relates to tyrosine kinase in cell membrane fraction of SK-BR-3. The following applies: 25 μM kinase inhibitor, 25 μM ATP. How it is done:
as §1, §2, §3, §4, §5, §6, §7

The test system of assay [17] is tyrosine kinase in cell membrane fraction of MDA-MB-231. The note with it: 25 μM kinase inhibitor, 25 μM ATP. How it is done:
as §1, §2, §3, §4, §5, §6, §7

For the compound `CCCNC(=O)Nc1ccc(Oc2ncnc3cc(OC)c(OC)cc23)cc1Cl` [Inhibitor 7], the Inhibition rate was 7.1% in assay [1]; 17.3% in assay [2]; 16.6% in assay [3]; 19.4% in assay [4]; 59.1% in assay [5]; 25.1% in assay [6]. In addition, the Inhibition rate amounted to 33.4% in assay [7]; 12.9% in assay [8]; 18.5% in assay [9]; 27.7% in [10]; 28.4% in assay [11]; 29.4% in [12]. The Inhibition rate in [13] stood at 10.5%; in assay [14], 3.4%; in assay [15] it was 28.5%; in assay [16], 45.0%; in assay [17], 9.7%.

Regarding `Cc1cc(F)c(Nc2ncnc3cc(OCc4ccccc4)ccc23)cc1O.Cl` [Inhibitor 8], the Inhibition rate in [1] came out at 11.5%; in assay [2] it was 11.1%; in assay [3], 15.5%; in assay [4], 5.5%; in [5], 45.7%; in assay [6], 14.0%. Also, the Inhibition rate in assay [7] is reported as 11.9%; in assay [8], 2.2%; in assay [9] it was 7.1%; in [10], 6.4%; in assay [11] it was 14.7%; in [12], 17.7%. Also, the Inhibition rate in assay [13] came out at 9.8%; in [14], 8.1%; in [15], 21.6%; in assay [16], 25.9%; in [17], 12.8%.

`Cc1[nH]c(/C=C2\C(=O)Nc3ccc(S(=O)(=O)N(C)c4cccc(Cl)c4)cc32)c(C)c1C(=O)N1CCN(C)CC1` [Inhibitor 9]: the Inhibition rate in [1] is on record as 55.6%; in [2], 52.6%; in assay [3], 67.0%; in assay [4], 70.6%; in assay [5], 64.3%; in assay [6], 56.7%. For the same compound, the Inhibition rate in assay [7] amounted to 69.1%; in [8] it was 47.5%; in [9] it was 65.0%; in assay [10] it was 77.3%; in [11], 70.7%; in [12], 64.4%. In addition, the Inhibition rate in [13] came out at 80.3%; in assay [14] it was 60.2%; in assay [15] it was 78.1%; in assay [16], 66.1%; in assay [17], 68.0%.
